Assay results published in patent publication US20230339854A1, “Negative Allosteric Modulation of GluN3-Containing N-Methyl-D-Aspartate Receptors” (Emory University, priority 2020, published 2023).

How the values were obtained:
[1] = target: T1, glycine receptors (Rattus norvegicus, UniProt P07727); assay: Glycine receptors in Xenopus oocytes (selectivity); assay type: cell-based; details: 20 μM
T1 construct: expressed in transfected cells; host or cells: Xenopus laevis oocytes; cDNA from Dr. D. Weiss
T1 sequence (P07727 29-457): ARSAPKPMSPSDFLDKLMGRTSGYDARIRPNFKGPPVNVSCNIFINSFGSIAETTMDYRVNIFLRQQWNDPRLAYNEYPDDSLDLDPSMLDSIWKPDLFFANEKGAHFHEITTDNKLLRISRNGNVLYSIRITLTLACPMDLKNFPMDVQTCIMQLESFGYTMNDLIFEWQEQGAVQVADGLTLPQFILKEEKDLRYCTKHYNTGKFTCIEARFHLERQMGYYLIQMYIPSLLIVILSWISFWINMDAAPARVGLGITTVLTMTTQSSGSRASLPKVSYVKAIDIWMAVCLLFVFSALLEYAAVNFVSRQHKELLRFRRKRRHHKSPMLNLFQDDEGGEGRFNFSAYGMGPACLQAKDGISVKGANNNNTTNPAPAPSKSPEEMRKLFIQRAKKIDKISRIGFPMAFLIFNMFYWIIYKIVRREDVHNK
Experimental: (§1) The numbers of oocytes recorded are in parentheses.
(§2) The cDNA was linearized by restriction enzymes (Thermo Fisher Scientific, Lithuania), and the cRNA encoding the receptor subunits was synthesized from the linear template cDNA using the mMESSAGE mMACHINE kit (Invitrogen/Thermo Fisher Scientific, Lithuania). The α1β1δγ nAChR subunits were injected at a 1:1:1:1 ratio while α4 […] nAChR subunits were injected at a 1:1 ratio. The cDNAs encoding GABA and glycine subunits were provided by Dr. D. Weiss (University of Texas Health Science Center at San Antonio). The cDNAs encoding nAChR subunits were provided by Drs. R. Papke (University of Florida) and S. Heinemann (Salk Institute). The cDNA encoding the purinergic receptor was provided by Dr. R. Hume (University of Michigan).
(§3) Responses in the presence of EU1180-438 were expressed as a percent of control calculated as the average of the responses before and after EU1180-438 exposure. […]
(§4) Defolliculated Xenopus laevis oocytes (stage V-VI) were obtained from Ecocyte BioScience (Austin, Texas), or prepared from commercially available Xenopus ovaries (Xenopus 1, Dexter, MI) as previously described (Hansen, et al., Mol. Pharmacol., 2013). […] Recording electrodes were filled with 0.3-3.0 M KCl, and current responses were recorded at a holding potential of −40 mV.

[2] = tested on: nicotinic receptors; assay: Nicotinic acetylcholine receptors in Xenopus oocytes (selectivity); assay type: cell-based, rat; details: 20 μM
Experimental: as §1, §2, §3, §4

[3] = target: GluN1/GluN3A channels (Mus musculus, UniProt A2AIR5); assay: Nonstationary variance analysis of neuronal glycine-evoked current responses; assay type: cell-based; details: 30 μM; VHOLD −60 mV
Experimental: Nonstationary variance analysis (Perszyk, et al., Nat. Chem. Biol., 2020, 16(2), 188-196) was conducted on the deactivation phase of the neuronal glycine-evoked current responses bathed in vehicle (control) or 30 μM EU1180-438 (VHOLD: −60 mV). […] The current was divided into 50 equally spaced segments, and the mean current amplitude of each segment was determined. The current was high pass filtered with a cutoff of 1 Hz, and the current variance was determined for 50 segments. The plot of variance vs. current for each response was fitted by the equation:
Variance=iI−I^2/N • where I is the current amplitude of macroscopic response, i is the weighted mean unitary current, and N is the channel numbers. Virtually identical results were found if the current-variance relationship for all 10 responses for each cell were averaged and then fitted by the foregoing equation. Chord conductance y was determined assuming 0 mV for the reversal potential.
Some allosteric modulators with molecular determinants in the pre-M1 can reduce single channel conductance for glutamate receptors (Perszyk, et al., Nat. Chem. Biol., 2020, 16(2), 188-196; Yuan, et al., ACS Med. Chem. Lett., 2019, 10 (3), 237-242). […]

Chain of GluN1/GluN3A channels (A2AIR5 27-1135, other chains not shown): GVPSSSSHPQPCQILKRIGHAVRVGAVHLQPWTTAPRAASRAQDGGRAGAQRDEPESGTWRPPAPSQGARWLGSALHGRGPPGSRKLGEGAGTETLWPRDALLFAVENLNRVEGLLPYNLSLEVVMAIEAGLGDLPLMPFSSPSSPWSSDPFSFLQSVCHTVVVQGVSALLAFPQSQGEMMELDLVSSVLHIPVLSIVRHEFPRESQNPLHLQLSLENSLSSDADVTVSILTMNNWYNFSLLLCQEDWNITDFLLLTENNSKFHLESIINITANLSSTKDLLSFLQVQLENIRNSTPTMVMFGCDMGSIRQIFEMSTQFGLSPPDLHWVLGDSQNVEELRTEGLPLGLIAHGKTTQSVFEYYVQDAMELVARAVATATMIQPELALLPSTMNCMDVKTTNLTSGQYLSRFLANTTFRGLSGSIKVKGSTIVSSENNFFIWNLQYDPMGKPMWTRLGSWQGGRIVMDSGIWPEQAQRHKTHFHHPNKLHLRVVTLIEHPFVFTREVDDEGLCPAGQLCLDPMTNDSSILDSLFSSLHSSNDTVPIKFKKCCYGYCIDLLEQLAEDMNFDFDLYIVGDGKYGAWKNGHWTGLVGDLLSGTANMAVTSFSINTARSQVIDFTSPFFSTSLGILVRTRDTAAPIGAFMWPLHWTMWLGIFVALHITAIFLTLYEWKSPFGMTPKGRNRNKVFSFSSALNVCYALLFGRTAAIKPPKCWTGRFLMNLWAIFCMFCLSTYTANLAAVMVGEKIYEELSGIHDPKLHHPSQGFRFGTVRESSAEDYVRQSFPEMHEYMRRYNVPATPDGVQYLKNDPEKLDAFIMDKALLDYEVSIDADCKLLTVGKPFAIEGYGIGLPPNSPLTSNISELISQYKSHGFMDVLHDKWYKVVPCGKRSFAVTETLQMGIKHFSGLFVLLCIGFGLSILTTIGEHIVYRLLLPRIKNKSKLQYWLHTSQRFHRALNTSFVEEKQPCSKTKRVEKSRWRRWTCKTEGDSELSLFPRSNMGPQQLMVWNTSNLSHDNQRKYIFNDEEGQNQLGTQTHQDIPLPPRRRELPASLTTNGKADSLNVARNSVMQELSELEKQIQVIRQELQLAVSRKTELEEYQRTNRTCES

COc1ccc(OCC(c2ccc(OC)cc2)N2Cc3ccccc3C2=O)cc1 (racemic) [EU1180-438, 2-(2-(4-methoxyphenoxy)-1-(4-methoxyphenyl)ethyl)isoindolin-1-one]
activity at glycine receptors [1]: virtually no activity | activity at nicotinic receptors [2]: inhibited some, but not all, nicotinic receptors | average chord conductance of GluN1/GluN3A channels [3]: 6.3±0.90 pS
